According to ChEMBL document CHEMBL2396621, “Design, synthesis and biological evaluation of 2-mercapto-3-phenethylquinazoline bearing anilide fragments as potential antitumor agents: molecular docking study” (2013):

Experiments:
Format in all cases: functional
[1] = system: NCI-H460; assay: Cytotoxicity against human NCI-H460 cells assessed as growth inhibition at 10 uM after 48 hrs by coulter counter analysis; conditions: NCI-H460, 48 h, read-out: GI
[2] = system: SNB-75; assay: Cytotoxicity against human SNB75 cells assessed as growth inhibition at 10 uM after 48 hrs by coulter counter analysis; conditions: SNB-75, 48 h, read-out: GI
[3] = system: TK-10; assay: Cytotoxicity against human TK10 cells assessed as growth inhibition at 10 uM after 48 hrs by coulter counter analysis; conditions: TK-10, 48 h, read-out: GI
[4] = system: ACHN; assay: Cytotoxicity against human ACHN cells assessed as growth inhibition at 10 uM after 48 hrs by coulter counter analysis; conditions: read-out: GI
[5] = system: M14; assay: Cytotoxicity against human M14 cells assessed as growth inhibition at 10 uM after 48 hrs by coulter counter analysis; conditions: M14, 48 h, read-out: GI
[6] = system: HT-29; assay: Cytotoxicity against human HT-29 cells assessed as growth inhibition at 10 uM after 48 hrs by coulter counter analysis; conditions: HT-29, 48 h, read-out: GI
[7] = system: KM12; assay: Cytotoxicity against human KM12 cells assessed as growth inhibition at 10 uM after 48 hrs by coulter counter analysis; conditions: KM12, 48 h, read-out: GI
[8] = system: Hs-578T; assay: Cytotoxicity against human Hs578T cells assessed as growth inhibition at 10 uM after 48 hrs by coulter counter analysis; conditions: read-out: GI
[9] = system: SK-MEL-28; assay: Cytotoxicity against human SK-MEL-28 cells assessed as growth inhibition at 10 uM after 48 hrs by coulter counter analysis; conditions: SK-MEL-28, 48 h, read-out: GI
[10] = system: DU-145; assay: Cytotoxicity against human DU145 cells assessed as growth inhibition at 10 uM after 48 hrs by coulter counter analysis; conditions: DU-145, 48 h, read-out: GI
[11] = system: MDA-MB-231; assay: Cytotoxicity against human MDA-MB-231 cells assessed as growth inhibition at 10 uM after 48 hrs by coulter counter analysis; conditions: MDA-MB-231, 48 h, read-out: GI
[12] = system: T47D; assay: Cytotoxicity against human T47D cells assessed as growth inhibition at 10 uM after 48 hrs by coulter counter analysis; conditions: read-out: GI
[13] = system: HCT-15; assay: Cytotoxicity against human HCT15 cells assessed as growth inhibition at 10 uM after 48 hrs by coulter counter analysis; conditions: HCT-15, 48 h, read-out: GI
[14] = system: UACC-62; assay: Cytotoxicity against human UACC62 cells assessed as growth inhibition at 10 uM after 48 hrs by coulter counter analysis; conditions: UACC-62, 48 h, read-out: GI
[15] = Cytotoxicity against human EKVX cells assessed as growth inhibition at 10 uM after 48 hrs by coulter counter analysis; conditions: read-out: GI
[16] = system: RXF 393; assay: Cytotoxicity against human RXF393 cells assessed as growth inhibition at 10 uM after 48 hrs by coulter counter analysis; conditions: RXF 393, 48 h, read-out: GI
[17] = system: SF-295; assay: Cytotoxicity against human SF295 cells assessed as growth inhibition at 10 uM after 48 hrs by coulter counter analysis; conditions: SF-295, 48 h, read-out: GI
[18] = Cytotoxicity against human NCI-ADR-RES cells assessed as growth inhibition at 10 uM after 48 hrs by coulter counter analysis; conditions: read-out: GI
[19] = system: HOP-62; assay: Cytotoxicity against human HOP62 cells assessed as growth inhibition at 10 uM after 48 hrs by coulter counter analysis; conditions: HOP-62, 48 h, read-out: GI
[20] = system: CAKI-1; assay: Cytotoxicity against human Caki1 cells assessed as growth inhibition at 10 uM after 48 hrs by coulter counter analysis; conditions: CAKI-1, 48 h, read-out: GI
[21] = system: A498; assay: Cytotoxicity against human A498 cells assessed as growth inhibition at 10 uM after 48 hrs by coulter counter analysis; conditions: A498, 48 h, read-out: GI
[22] = system: U-251; assay: Cytotoxicity against human U251 cells assessed as growth inhibition at 10 uM after 48 hrs by coulter counter analysis; conditions: U-251, 48 h, read-out: GI
[23] = system: BT-549; assay: Cytotoxicity against human BT549 cells assessed as growth inhibition at 10 uM after 48 hrs by coulter counter analysis; conditions: BT-549, 48 h, read-out: GI
[24] = system: UACC-257; assay: Cytotoxicity against human UACC257 cells assessed as growth inhibition at 10 uM after 48 hrs by coulter counter analysis; conditions: UACC-257, 48 h, read-out: GI
[25] = system: SK-OV-3; assay: Cytotoxicity against human SKOV3 cells assessed as growth inhibition at 10 uM after 48 hrs by coulter counter analysis; conditions: SK-OV-3, 48 h, read-out: GI
[26] = system: PC-3; assay: Cytotoxicity against human PC3 cells assessed as growth inhibition at 10 uM after 48 hrs by coulter counter analysis; conditions: PC-3, 48 h, read-out: GI
[27] = system: HCT-116; assay: Cytotoxicity against human HCT116 cells assessed as growth inhibition at 10 uM after 48 hrs by coulter counter analysis; conditions: HCT-116, 48 h, read-out: GI
[28] = system: NCI-H23; assay: Cytotoxicity against human NCI-H23 cells assessed as growth inhibition at 10 uM after 48 hrs by coulter counter analysis; conditions: NCI-H23, 48 h, read-out: GI
[29] = system: SF-539; assay: Cytotoxicity against human SF539 cells assessed as growth inhibition at 10 uM after 48 hrs by coulter counter analysis; conditions: SF-539, 48 h, read-out: GI
[30] = system: SNB-19; assay: Cytotoxicity against human SNB19 cells assessed as growth inhibition at 10 uM after 48 hrs by coulter counter analysis; conditions: SNB-19, 48 h, read-out: GI
[31] = system: OVCAR-3; assay: Cytotoxicity against human OVCAR3 cells assessed as growth inhibition at 10 uM after 48 hrs by coulter counter analysis; conditions: OVCAR-3, 48 h, read-out: GI
[32] = system: UO-31; assay: Cytotoxicity against human UO31 cells assessed as growth inhibition at 10 uM after 48 hrs by coulter counter analysis; conditions: UO-31, 48 h, read-out: GI
[33] = system: MDA-MB-435; assay: Cytotoxicity against human MDA-MB-435 cells assessed as growth inhibition at 10 uM after 48 hrs by coulter counter analysis; conditions: MDA-MB-435, 48 h, read-out: GI
[34] = system: SN12C; assay: Cytotoxicity against human SN12C cells assessed as growth inhibition at 10 uM after 48 hrs by coulter counter analysis; conditions: read-out: GI
[35] = system: COLO 205; assay: Cytotoxicity against human COLO205 cells assessed as growth inhibition at 10 uM after 48 hrs by coulter counter analysis; conditions: COLO 205, 48 h, read-out: GI
[36] = system: NCI-H322M; assay: Cytotoxicity against human NCI-H322M cells assessed as growth inhibition at 10 uM after 48 hrs by coulter counter analysis; conditions: read-out: GI
[37] = system: OVCAR-4; assay: Cytotoxicity against human OVCAR4 cells assessed as growth inhibition at 10 uM after 48 hrs by coulter counter analysis; conditions: OVCAR-4, 48 h, read-out: GI
[38] = system: A549; assay: Cytotoxicity against human A549 cells assessed as growth inhibition at 10 uM after 48 hrs by coulter counter analysis; conditions: A549, 48 h, read-out: GI
[39] = system: Malme-3M; assay: Cytotoxicity against human MALME-3M cells assessed as growth inhibition at 10 uM after 48 hrs by coulter counter analysis; conditions: read-out: GI
[40] = system: HCC 2998; assay: Cytotoxicity against human HCC2998 cells assessed as growth inhibition at 10 uM after 48 hrs by coulter counter analysis; conditions: HCC 2998, 48 h, read-out: GI
[41] = system: MDA-MB-468; assay: Cytotoxicity against human MDA-MB-468 cells assessed as growth inhibition at 10 uM after 48 hrs by coulter counter analysis; conditions: MDA-MB-468, 48 h, read-out: GI
[42] = system: SK-MEL-5; assay: Cytotoxicity against human SK-MEL-5 cells assessed as growth inhibition at 10 uM after 48 hrs by coulter counter analysis; conditions: SK-MEL-5, 48 h, read-out: GI
[43] = system: OVCAR-5; assay: Cytotoxicity against human OVCAR5 cells assessed as growth inhibition at 10 uM after 48 hrs by coulter counter analysis; conditions: OVCAR-5, 48 h, read-out: GI
[44] = system: OVCAR-8; assay: Cytotoxicity against human OVCAR8 cells assessed as growth inhibition at 10 uM after 48 hrs by coulter counter analysis; conditions: OVCAR-8, 48 h, read-out: GI
[45] = system: SW-620; assay: Cytotoxicity against human SW620 cells assessed as growth inhibition at 10 uM after 48 hrs by coulter counter analysis; conditions: SW-620, 48 h, read-out: GI
[46] = Cytotoxicity against human breast cancer cells after 48 hrs by coulter counter analysis; conditions: Cancer cell lines
[47] = Cytotoxicity against human non-small cell lung cancer cells after 48 hrs by coulter counter analysis; conditions: Cancer cell lines
[48] = Cytotoxicity against human prostate cancer cells after 48 hrs by coulter counter analysis; conditions: Cancer cell lines
[49] = Cytotoxicity against human colon cancer cells after 48 hrs by coulter counter analysis; conditions: Cancer cell lines
[50] = Cytotoxicity against human melanoma cells after 48 hrs by coulter counter analysis; conditions: Melanoma cell
[51] = Cytotoxicity against human CNS cancer cells after 48 hrs by coulter counter analysis; conditions: Cancer cell lines
[52] = Cytotoxicity against human ovarian cancer cells after 48 hrs by coulter counter analysis; conditions: Cancer cell lines
[53] = Cytotoxicity against human leukemia cells after 48 hrs by coulter counter analysis; conditions: Leukemia cell
[54] = Cytotoxicity against human renal cancer cells after 48 hrs by coulter counter analysis; conditions: Cancer cell lines
[55] = read-out: LC50 (the source's name)

In the case of `NC(=O)CSc1nc2ccccc2c(=O)n1CCc1ccccc1`, the inhibition of growth at 10 µM [1] is reported as under 10%, the inhibition of growth at 10 µM [2] is reported as under 10% and the inhibition of growth at 10 µM [3] is reported as under 10%. For the same compound, the inhibition of growth at 10 µM [4] was 34%, the inhibition of growth at 10 µM [5] was under 10% and the inhibition of growth at 10 µM [6] was under 10%. It also gave an inhibition of growth at 10 µM [7] of under 10%, an inhibition of growth at 10 µM [8] of under 10% and an inhibition of growth at 10 µM [9] of under 10%. For the same compound, the inhibition of growth at 10 µM [10] was under 10%, the inhibition of growth at 10 µM [11] was under 10% and the inhibition of growth at 10 µM [12] was under 10%. For the same compound, the inhibition of growth at 10 µM [13] was under 10%, the inhibition of growth at 10 µM [14] was under 10% and the inhibition of growth at 10 µM [15] was 10%. It also gave an inhibition of growth at 10 µM [16] of under 10%, an inhibition of growth at 10 µM [17] of under 10% and an inhibition of growth at 10 µM [18] of under 10%. For the same compound, the inhibition of growth at 10 µM [19] was under 10%, the inhibition of growth at 10 µM [20] was 12% and the inhibition of growth at 10 µM [21] was under 10%. For the same compound, the inhibition of growth at 10 µM [22] was under 10%, the inhibition of growth at 10 µM [23] was under 10% and the inhibition of growth at 10 µM [24] was under 10%. The inhibition of growth at 10 µM [25] was under 10%, the inhibition of growth at 10 µM [26] was under 10% and the inhibition of growth at 10 µM [27] was under 10%. For the same compound, the inhibition of growth at 10 µM [28] was under 10%, the inhibition of growth at 10 µM [29] was under 10% and the inhibition of growth at 10 µM [30] was under 10%. For the same compound, the inhibition of growth at 10 µM [31] was under 10%, the inhibition of growth at 10 µM [32] was under 10% and the inhibition of growth at 10 µM [33] was under 10%. The inhibition of growth at 10 µM [34] was under 10%, the inhibition of growth at 10 µM [35] was under 10% and the inhibition of growth at 10 µM [36] was under 10%. The inhibition of growth at 10 µM [37] was under 10%, the inhibition of growth at 10 µM [38] was 12% and the inhibition of growth at 10 µM [39] was under 10%. It also gave an inhibition of growth at 10 µM [40] of under 10%, an inhibition of growth at 10 µM [41] of under 10% and an inhibition of growth at 10 µM [42] of under 10%. It also gave an inhibition of growth at 10 µM [43] of under 10%, an inhibition of growth at 10 µM [44] of under 10% and an inhibition of growth at 10 µM [45] of under 10%.

Compound `O=c1[nH]cc(F)c(=O)[nH]1` [FLUOROURACIL] has a GI50 [46] of 76.4 µM, a TGI [46] of over 100 µM and a GI50 [47] of over 100 µM. It also gave a TGI [47] of over 100 µM, a CC50 [47, 55] of over 100 µM and a GI50 [48] of 22.7 µM. The TGI [48] was over 100 µM, the CC50 [48, 55] was over 100 µM and the GI50 [49] was 8.4 µM. It also gave a TGI [49] of over 100 µM, a CC50 [49, 55] of over 100 µM and a GI50 [50] of 70.6 µM. The TGI [50] was over 100 µM, the TGI [51] was over 100 µM and the CC50 [51, 55] was over 100 µM. For the same compound, the GI50 [52] was 61.4 µM, the TGI [52] was over 100 µM and the TGI [53] was over 100 µM. For the same compound, the GI50 [54] was 45.6 µM and the TGI [54] was over 100 µM.
